In ChEMBL document CHEMBL4138123, “Design, synthesis and biological evaluation of novel pyrazolochalcones as potential modulators of PI3K/Akt/mTOR pathway and inducers of apoptosis in breast cancer cells” (Eur J Med Chem, 2017):

Assays:
Type in all cases: functional
[1] = test system: MDA-MB-468; experiment: Cytotoxicity against human MDA-MB-468 cells assessed as cell growth at 1 uM after 48 hrs by sulforhodamine B assay relative to control; settings: MDA-MB-468, 48 h, read-out: Activity
[2] = test system: Malme-3M; experiment: Cytotoxicity against human MALME-3M cells assessed as cell growth at 0.1 uM after 48 hrs by sulforhodamine B assay relative to control; settings: read-out: Activity
[3] = test system: BT-549; experiment: Cytotoxicity against human BT549 cells assessed as cell growth at 10 uM after 48 hrs by sulforhodamine B assay relative to control; settings: BT-549, 48 h, read-out: Activity
[4] = test system: HCT-15; experiment: Cytotoxicity against human HCT15 cells assessed as cell growth at 0.01 uM after 48 hrs by sulforhodamine B assay relative to control; settings: HCT-15, 48 h, read-out: Activity
[5] = test system: A498; experiment: Cytotoxicity against human A498 cells assessed as cell growth at 10 uM after 48 hrs by sulforhodamine B assay relative to control; settings: A498, 48 h, read-out: Activity
[6] = test system: SK-MEL-5; experiment: Cytotoxicity against human SK-MEL-5 cells assessed as cell growth at 100 uM after 48 hrs by sulforhodamine B assay relative to control; settings: SK-MEL-5, 48 h, read-out: Activity
[7] = test system: RXF 393; experiment: Cytotoxicity against human RXF393 cells assessed as growth inhibition after 48 hrs by sulforhodamine B assay; settings: RXF 393, 48 h
[8] = test system: HCT-15; experiment: Cytotoxicity against human HCT15 cells assessed as growth inhibition after 48 hrs by sulforhodamine B assay; settings: HCT-15, 48 h
[9] = test system: A549; experiment: Cytotoxicity against human A549/ATCC cells assessed as cell growth at 100 uM after 48 hrs by sulforhodamine B assay relative to control; settings: A549, 48 h, read-out: Activity
[10] = test system: MOLT-4; experiment: Cytotoxicity against human MOLT4 cells assessed as growth inhibition after 48 hrs by sulforhodamine B assay; settings: MOLT-4, 48 h
[11] = test system: SR; experiment: Cytotoxicity against human SR cells assessed as growth inhibition after 48 hrs by sulforhodamine B assay
[12] = test system: SF-539; experiment: Cytotoxicity against human SF539 cells assessed as cell growth at 0.1 uM after 48 hrs by sulforhodamine B assay relative to control; settings: SF-539, 48 h, read-out: Activity
[13] = test system: SR; experiment: Cytotoxicity against human SR cells assessed as cell growth at 0.1 uM after 48 hrs by sulforhodamine B assay relative to control; settings: read-out: Activity
[14] = test system: UACC-257; experiment: Cytotoxicity against human UACC257 cells assessed as cell growth at 10 uM after 48 hrs by sulforhodamine B assay relative to control; settings: UACC-257, 48 h, read-out: Activity
[15] = test system: RPMI-8226; experiment: Cytotoxicity against human RPMI8226 cells assessed as growth inhibition after 48 hrs by sulforhodamine B assay; settings: RPMI-8226, 48 h
[16] = test system: HL-60(TB); experiment: Cytotoxicity against human HL-60(TB) cells assessed as cell growth at 0.01 uM after 48 hrs by sulforhodamine B assay relative to control; settings: HL-60, 48 h, read-out: Activity
[17] = test system: NCI-H322M; experiment: Cytotoxicity against human NCI-H322M cells assessed as cell growth at 1 uM after 48 hrs by sulforhodamine B assay relative to control; settings: read-out: Activity
[18] = test system: Malme-3M; experiment: Cytotoxicity against human MALME-3M cells assessed as growth inhibition after 48 hrs by sulforhodamine B assay
[19] = test system: HT-29; experiment: Cytotoxicity against human HT-29 cells assessed as cell growth at 1 uM after 48 hrs by sulforhodamine B assay relative to control; settings: HT-29, 48 h, read-out: Activity
[20] = test system: HCT-116; experiment: Cytotoxicity against human HCT116 cells assessed as cell growth at 100 uM after 48 hrs by sulforhodamine B assay relative to control; settings: HCT-116, 48 h, read-out: Activity
[21] = test system: NCI-H460; experiment: Cytotoxicity against human NCI-H460 cells assessed as growth inhibition after 48 hrs by sulforhodamine B assay; settings: NCI-H460, 48 h
[22] = test system: SK-OV-3; experiment: Cytotoxicity against human SKOV3 cells assessed as cell growth at 100 uM after 48 hrs by sulforhodamine B assay relative to control; settings: SK-OV-3, 48 h, read-out: Activity
[23] = test system: HL-60(TB); experiment: Cytotoxicity against human HL-60(TB) cells assessed as cell growth at 0.1 uM after 48 hrs by sulforhodamine B assay relative to control; settings: HL-60, 48 h, read-out: Activity
[24] = test system: MDA-MB-435; experiment: Cytotoxicity against human MDA-MB-435 cells assessed as cell growth at 0.1 uM after 48 hrs by sulforhodamine B assay relative to control; settings: MDA-MB-435, 48 h, read-out: Activity
[25] = test system: OVCAR-8; experiment: Cytotoxicity against human OVCAR8 cells assessed as growth inhibition after 48 hrs by sulforhodamine B assay; settings: OVCAR-8, 48 h
[26] = test system: U-251; experiment: Cytotoxicity against human U251 cells assessed as cell growth at 10 uM after 48 hrs by sulforhodamine B assay relative to control; settings: U-251, 48 h, read-out: Activity
[27] = test system: NCI-H226; experiment: Cytotoxicity against human NCI-H226 cells assessed as cell growth at 0.01 uM after 48 hrs by sulforhodamine B assay relative to control; settings: NCI-H226, 48 h, read-out: Activity
[28] = test system: UACC-257; experiment: Cytotoxicity against human UACC257 cells assessed as cell growth at 0.01 uM after 48 hrs by sulforhodamine B assay relative to control; settings: UACC-257, 48 h, read-out: Activity
[29] = test system: MOLT-4; experiment: Cytotoxicity against human MOLT4 cells assessed as cell growth at 100 uM after 48 hrs by sulforhodamine B assay relative to control; settings: MOLT-4, 48 h, read-out: Activity
[30] = test system: SK-OV-3; experiment: Cytotoxicity against human SKOV3 cells assessed as cell growth at 0.1 uM after 48 hrs by sulforhodamine B assay relative to control; settings: SK-OV-3, 48 h, read-out: Activity
[31] = test system: ACHN; experiment: Cytotoxicity against human ACHN cells assessed as cell growth at 10 uM after 48 hrs by sulforhodamine B assay relative to control; settings: read-out: Activity
[32] = test system: BT-549; experiment: Cytotoxicity against human BT549 cells assessed as cell growth at 0.1 uM after 48 hrs by sulforhodamine B assay relative to control; settings: BT-549, 48 h, read-out: Activity
[33] = test system: BT-549; experiment: Cytotoxicity against human BT549 cells assessed as cell growth at 100 uM after 48 hrs by sulforhodamine B assay relative to control; settings: BT-549, 48 h, read-out: Activity
[34] = test system: U-251; experiment: Cytotoxicity against human U251 cells assessed as cell growth at 1 uM after 48 hrs by sulforhodamine B assay relative to control; settings: U-251, 48 h, read-out: Activity
[35] = test system: CCRF-CEM; experiment: Cytotoxicity against human CCRF-CEM cells assessed as cell growth at 1 uM after 48 hrs by sulforhodamine B assay relative to control; settings: read-out: Activity
[36] = test system: UO-31; experiment: Cytotoxicity against human UO31 cells assessed as cell growth at 0.01 uM after 48 hrs by sulforhodamine B assay relative to control; settings: UO-31, 48 h, read-out: Activity
[37] = read-out: LC50 (the source's name)

## COc1cc(C(=O)/C=C/c2cc(-c3ccc4c(c3)OCO4)n[nH]2)cc(OC)c1OC
[1]
  growth at 1 µM: 68%
[2]
  growth at 0.1 µM: 83%
[3]
  growth at 10 µM: -38%
[4]
  growth at 0.01 µM: 98%
[5]
  growth at 10 µM: -39%
[6]
  growth at 100 µM: -97%
[7]
  GI50: 1.31 µM
  LC50 (concentration killing 50% of cells): 6.59 µM
  TGI: 2.94 µM
[8]
  GI50: 1.95 µM
  LC50: > 100 µM
  TGI: 6.75 µM
[9]
  growth at 100 µM: -80%
[10]
  GI50: 2.71 µM
  TGI: 8.36 µM
[10]; [37]
  CC50: > 100 µM
[11]
  GI50: 1.2 µM
  TGI: 5.63 µM
[11]; [37]
  CC50: > 100 µM
[12]
  growth at 0.1 µM: 97%
[13]
  growth at 0.1 µM: 94%
[14]
  growth at 10 µM: -2%
[15]
  GI50: 0.56 µM
  LC50: > 100 µM
  TGI: 2.53 µM
[16]
  growth at 0.01 µM: 99%
[17]
  growth at 1 µM: 84%
[18]
  GI50: 1.85 µM
  LC50: 15.3 µM
  TGI: 4.69 µM
[19]
  growth at 1 µM: 96%
[20]
  growth at 100 µM: -47%
[21]
  GI50: 1.81 µM
  LC50: 7.84 µM
  TGI: 3.77 µM
[22]
  growth at 100 µM: -98%
[23]
  growth at 0.1 µM: 98%
[24]
  growth at 0.1 µM: 95%
[25]
  GI50: 2.35 µM
  LC50: 24.8 µM
  TGI: 6.37 µM
[26]
  growth at 10 µM: -96%
[27]
  growth at 0.01 µM: 97%
[28]
  growth at 0.01 µM: 98%
[29]
  growth at 100 µM: -13%
[30]
  growth at 0.1 µM: 105%
[31]
  growth at 10 µM: -43%
[32]
  growth at 0.1 µM: 97%
[33]
  growth at 100 µM: -77%
[34]
  growth at 1 µM: 63%
[35]
  growth at 1 µM: 83%
[36]
  growth at 0.01 µM: 85%
